{
  "source": "patent US20250228800A1",
  "about": "“Treatment of nasal cavity inflammation and mucus hypersecretion” (priority 2024, published 2025)",
  "key": {"TRPA1": {"molecular_target": "T1, TRPA1 (Homo sapiens, UniProt O75762)", "T1 construct": "expressed in transfected cells", "T1 sequence (O75762 whole entry, species assumed)": "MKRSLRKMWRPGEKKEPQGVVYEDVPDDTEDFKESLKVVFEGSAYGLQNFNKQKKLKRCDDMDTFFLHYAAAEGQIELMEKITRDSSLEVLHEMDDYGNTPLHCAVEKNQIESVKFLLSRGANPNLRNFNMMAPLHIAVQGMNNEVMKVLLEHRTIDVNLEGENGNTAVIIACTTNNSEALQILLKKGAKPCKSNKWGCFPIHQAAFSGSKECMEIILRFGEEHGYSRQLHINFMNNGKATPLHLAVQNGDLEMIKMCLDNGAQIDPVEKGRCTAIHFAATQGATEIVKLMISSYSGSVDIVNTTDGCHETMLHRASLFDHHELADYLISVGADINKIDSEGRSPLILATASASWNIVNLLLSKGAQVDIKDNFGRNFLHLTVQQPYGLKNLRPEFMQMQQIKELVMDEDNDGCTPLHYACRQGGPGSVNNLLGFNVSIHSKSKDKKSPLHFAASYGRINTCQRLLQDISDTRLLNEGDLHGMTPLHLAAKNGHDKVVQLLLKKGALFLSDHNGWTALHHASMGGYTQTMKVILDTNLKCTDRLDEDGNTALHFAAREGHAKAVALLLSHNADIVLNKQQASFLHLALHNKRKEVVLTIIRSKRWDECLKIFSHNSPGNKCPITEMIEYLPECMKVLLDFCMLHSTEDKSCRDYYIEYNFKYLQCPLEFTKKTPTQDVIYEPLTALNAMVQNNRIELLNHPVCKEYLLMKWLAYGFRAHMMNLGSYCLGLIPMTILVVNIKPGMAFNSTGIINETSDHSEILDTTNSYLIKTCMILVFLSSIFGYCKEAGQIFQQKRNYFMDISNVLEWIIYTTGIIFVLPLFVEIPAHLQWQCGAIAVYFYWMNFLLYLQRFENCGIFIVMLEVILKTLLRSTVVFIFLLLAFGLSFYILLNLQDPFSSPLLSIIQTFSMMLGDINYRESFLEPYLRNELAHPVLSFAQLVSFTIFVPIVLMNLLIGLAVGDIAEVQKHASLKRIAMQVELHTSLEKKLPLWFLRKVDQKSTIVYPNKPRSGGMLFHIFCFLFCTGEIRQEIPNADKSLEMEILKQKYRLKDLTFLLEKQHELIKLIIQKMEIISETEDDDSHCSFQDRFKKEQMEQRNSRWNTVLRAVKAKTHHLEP", "assay": "Bioassay in cells transfected with TRPA1, Prof. Lee laboratory, Duke University", "assay_type": "cell-based", "excerpt": "Data from the laboratory of Prof. Seok-Yong Lee's at Duke University.\nSeok-Yong Lee at Duke University (FIG. 3)."}, "tongue": {"system": "tongue", "assay": "Oral cavity screen, 15 mg of white crystals on dorsal surface of the tongue", "assay_type": "in vivo, human", "experimental": "The first screening tests conducted in this discovery to assess candidates that produce refreshing cooling in the oral cavity. Test agents, prepared as 15 mg of white crystals, were placed on the dorsal surface of the tongue. The chemical structures and identifying characteristics are in Table 1."}, "TRPM8 [1]": {"molecular_target": "T2, TRPM8 (Homo sapiens, UniProt Q7Z2W7)", "T2 sequence (Q7Z2W7 whole entry, species assumed)": "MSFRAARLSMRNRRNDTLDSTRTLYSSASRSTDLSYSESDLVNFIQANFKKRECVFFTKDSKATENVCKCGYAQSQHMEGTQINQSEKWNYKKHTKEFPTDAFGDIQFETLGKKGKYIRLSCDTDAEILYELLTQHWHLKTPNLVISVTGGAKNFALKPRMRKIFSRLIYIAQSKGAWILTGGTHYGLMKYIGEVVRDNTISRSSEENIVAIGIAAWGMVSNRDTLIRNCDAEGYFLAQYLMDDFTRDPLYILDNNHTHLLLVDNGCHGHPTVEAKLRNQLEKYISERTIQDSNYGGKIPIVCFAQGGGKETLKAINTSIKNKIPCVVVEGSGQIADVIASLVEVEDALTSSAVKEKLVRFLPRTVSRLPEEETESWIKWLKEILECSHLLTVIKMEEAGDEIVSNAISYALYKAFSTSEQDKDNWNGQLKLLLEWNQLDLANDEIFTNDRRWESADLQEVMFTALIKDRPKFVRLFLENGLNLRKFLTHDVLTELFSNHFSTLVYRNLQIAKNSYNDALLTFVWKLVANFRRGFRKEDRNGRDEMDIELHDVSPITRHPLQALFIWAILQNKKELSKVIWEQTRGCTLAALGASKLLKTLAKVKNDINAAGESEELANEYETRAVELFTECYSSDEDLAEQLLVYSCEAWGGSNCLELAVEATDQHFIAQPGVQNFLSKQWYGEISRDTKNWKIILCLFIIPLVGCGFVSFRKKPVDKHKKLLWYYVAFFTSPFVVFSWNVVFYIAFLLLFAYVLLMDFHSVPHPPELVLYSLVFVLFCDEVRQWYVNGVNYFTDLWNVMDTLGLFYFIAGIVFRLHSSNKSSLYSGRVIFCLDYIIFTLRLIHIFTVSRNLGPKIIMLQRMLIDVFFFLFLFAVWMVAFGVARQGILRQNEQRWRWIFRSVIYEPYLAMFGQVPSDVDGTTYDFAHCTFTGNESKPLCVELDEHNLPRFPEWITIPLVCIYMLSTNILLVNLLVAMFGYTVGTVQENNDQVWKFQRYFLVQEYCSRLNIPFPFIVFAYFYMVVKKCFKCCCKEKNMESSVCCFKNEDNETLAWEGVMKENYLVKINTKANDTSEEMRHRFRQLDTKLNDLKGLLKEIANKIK", "conditions": "Ref#2; cited from earlier work"}, "TRPM8 [2]": {"molecular_target": "T2, TRPM8", "conditions": "Ref#6; cited from earlier work"}, "[3]": {"molecular_target": "mouse cold-menthol receptor TRPM8 (Mus musculus, UniProt Q8R4D5)", "sequence (Q8R4D5 whole entry)": "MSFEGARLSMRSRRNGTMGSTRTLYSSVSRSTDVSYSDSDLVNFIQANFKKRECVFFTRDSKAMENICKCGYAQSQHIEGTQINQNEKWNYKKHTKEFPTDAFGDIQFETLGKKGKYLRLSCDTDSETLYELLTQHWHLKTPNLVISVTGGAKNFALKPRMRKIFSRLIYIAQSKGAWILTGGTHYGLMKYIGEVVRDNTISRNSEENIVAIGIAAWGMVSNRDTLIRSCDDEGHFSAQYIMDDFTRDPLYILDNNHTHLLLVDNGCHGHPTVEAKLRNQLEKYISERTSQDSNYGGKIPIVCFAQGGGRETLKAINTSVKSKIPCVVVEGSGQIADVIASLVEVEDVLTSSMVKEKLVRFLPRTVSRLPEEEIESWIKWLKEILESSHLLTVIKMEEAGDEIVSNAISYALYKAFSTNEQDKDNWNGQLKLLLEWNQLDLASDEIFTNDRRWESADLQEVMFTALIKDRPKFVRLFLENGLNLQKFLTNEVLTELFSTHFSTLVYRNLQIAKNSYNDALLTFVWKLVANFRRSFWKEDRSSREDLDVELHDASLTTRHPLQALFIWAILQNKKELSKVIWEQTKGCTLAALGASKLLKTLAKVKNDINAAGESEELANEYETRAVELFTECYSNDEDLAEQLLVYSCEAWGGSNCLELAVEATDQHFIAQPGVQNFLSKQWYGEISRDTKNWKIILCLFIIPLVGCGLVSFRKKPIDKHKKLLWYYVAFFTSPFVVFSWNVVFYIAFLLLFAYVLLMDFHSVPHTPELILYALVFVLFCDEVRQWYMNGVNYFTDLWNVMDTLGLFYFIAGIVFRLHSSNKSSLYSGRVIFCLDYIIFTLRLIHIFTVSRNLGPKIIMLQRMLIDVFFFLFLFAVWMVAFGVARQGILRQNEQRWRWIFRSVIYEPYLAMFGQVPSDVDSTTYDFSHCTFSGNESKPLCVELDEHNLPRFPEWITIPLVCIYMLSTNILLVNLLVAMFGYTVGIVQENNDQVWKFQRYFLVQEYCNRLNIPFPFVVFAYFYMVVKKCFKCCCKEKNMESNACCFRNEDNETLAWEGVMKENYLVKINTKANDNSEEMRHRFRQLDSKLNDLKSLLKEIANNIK", "conditions": "Ref#1; cited from earlier work"}, "philtrum skin": {"system": "philtrum skin", "assay": "Philtrum skin assay of cooling", "assay_type": "in vivo, human", "conditions": "for Duration (min) of cooling / Comments (sensation): 8% wt/vol gel on philtrum skin", "description": "Wei (2012) proposed the use of the skin on the philtrum as a test site for cooling activity of chemicals. The philtrum is the midline groove above the upper lip border and vermilion and is the drug application site. The gel is placed on the philtrum with a cotton-tipped applicator up to the nasolabial folds and sometimes, but not deliberately, on the lower nostrils (subnasale). Cold receptors densely innervate the philtrum skin, second only to the surfaces of the eyeball, nasal surfaces, and anogenitalia. The lips also have a high density of “cold spots.” This is called the philtrum assay. The test substance is dissolved in a carrier, such as solvent, gel, or ointment and applied to the philtrum, a surface area of ˜10 to 12 cm2. The subject records sensations on the philtrum and environs on a scale of 0 to 3, as: 0=no changes in sensation, 1=a slight feeling of coolness, cold or tingling, 2=a clearcut feeling of coolness or cold and 3=a robust feeling of coolness and cold. The intervals for measurements are usually 0, 1, 3, 5 min after application, and at then 5 min or longer intervals thereafter until two successive zeros are obtained. Test substances are applied to the philtrum using a cotton-tipped applicator (Puritan Cotton-tipped applicators, or Q-Tips). The applicator tip is dipped into a reservoir bottle containing the liquid or semi-liquid (gel) test substance. The composition adhering to the cotton (about 0.2 mL) is put on the skin. A subject can practice the method in front of a mirror with a high-intensity light source."}, "skin": {"system": "skin", "conditions": "for treatment of skin dysesthesia (insect bites, skin allergies, thermal injury): topical gel on skin"}, "nasal cavity": {"system": "nasal cavity", "assay": "Study 1: NasoNeb nebulizer delivery to nasal cavity of subjects with rhinitis", "assay_type": "in vivo, human", "experimental": "Study 1. In this first study, a specialized nebulizer with an electronically controlled compressor was used to deliver FEMA 4557 to the nasal cavity of subjects with rhinitis. A typical dosage regimen was a 1.0 to 1.5% wt/vol solution (10 to 15 mg/mL) of FEMA 4557 over a 3 to 5 sec delivery period. […] No attempt was made to differentiate between delivered versus retained dose. The severity of rhinitis was quantified by gravimetric measurement of secretions and exudates from the nasal cavity (FIG. 15). Subjects were instructed to blow into a pre-weighed paper tissue and record the weight of the tissue after blowing. The tissue was inspected and marked as clear, with streaks of exudates, or dense gel. The nasal blowouts fell into three distinct categories of weights that were easy to recognize. […] The weight of the blowouts provides an objective index of nasal cavity inflammation. Nasal secretions were inhibited by topical administration of FEMA 4557, dissolved at 15 mg/ml in an ethanol, polysorbate 80, and saline mixture (FIG. 16). A Nasoneb® apparatus delivered FEMA 4557 into the nasal cavity (FIG. 13). The test substance was sprayed into the nasal cavity for 5 sec at t=0, 2, and 5 hr. The data points were fitted by linear regression (GraphPad Prism), and the 10-hr secretion was measured as ([…]). The results were vehicle 3.16±0.10 g and FEMA 4557 1.86±0.07 g, with n=6 and 5 observations per group, respectively. […] Inhibition of nasal secretions by topical administration of FEMA 4557, 15 mg/ml, delivered into the nasal cavity, is further illustrated by plotting the individual blowout units, in g per blowout FIG. 17. The test substances were sprayed into the nasal cavity for 5 sec at t=0, 2, and 5 hr. […] Thus, the anti-inflammatory effect of FEMA 4557 is further confirmed."}, "TRPM8 [4]": {"molecular_target": "T2, TRPM8", "conditions": "Ref#3; cited from earlier work"}, "TRPM8 [5]": {"molecular_target": "T2, TRPM8", "assay": "Bioassay of FEMA 4557 (BUDA) on TRPM8, Prof. Lee laboratory, Duke University", "assay_type": "cell-based"}},
  "note": "Read-outs that look alike come from different tables or passages of the source.",
  "data": [
    {"compound": "C=CCN=C=S", "note": "[AITC, allyl isothiocyanate]", "values": [
      {"measurement": "activity on TRPA1", "setting": "TRPA1", "result": "active"}
    ]},
    {"compound": "CC(C)OC(=O)CNC(=O)[C@@H]1C[C@H](C)CC[C@H]1C(C)C", "note": "[Ax-8, p-Menthane-Gly- OiPr]", "values": [
      {"measurement": "Effects of 15 mg on tongue (duration)", "setting": "tongue", "result": "~27", "unit": "min"},
      {"measurement": "Effects of 15 mg on tongue (sensation)", "setting": "tongue", "result": "pleasant cooling in oral cavity"}
    ]},
    {"compound": "CCOC(=O)[C@@H](C)NC(=O)[C@@H]1C[C@H](C)CC[C@H]1C(C)C", "note": "[CPS-369]", "values": [
      {"measurement": "EC50", "setting": "TRPM8 [1]", "result": 3.6, "unit": "µM"},
      {"measurement": "EC50", "setting": "TRPM8 [2]", "result": 65, "unit": "µM"}
    ]},
    {"compound": "CC(C)[C@@H]1CC[C@@H](C)C[C@H]1OCC(O)CO", "note": "(some centres unmarked) [Cool 10, menthoxypropanediol]", "values": [
      {"measurement": "EC50", "setting": "[3]", "result": 6, "unit": "µM"}
    ]},
    {"compound": "CCCCCCCP(=O)(C(C)C)C(C)C", "note": "[Cryosim-1, 1-diisopropyl-phosphorylheptane]", "values": [
      {"measurement": "Effects of 15 mg on tongue (sensation)", "setting": "tongue", "result": "stinging, painful cold"}
    ]},
    {"compound": "CCNC(=O)C(CC)(C(C)C)C(C)C", "note": "[FEMA 4557, N-ethyl-2,2-diisopropyl butanamide]", "values": [
      {"measurement": "average time of cooling", "setting": "philtrum skin; 2% concentration", "result": 50, "unit": "min"},
      {"measurement": "average time of cooling", "setting": "philtrum skin; 4% concentration", "result": 95, "unit": "min"},
      {"measurement": "average time of cooling", "setting": "philtrum skin; 8% concentration", "result": "≥ 175", "unit": "min"},
      {"measurement": "duration of cooling", "setting": "philtrum skin; 8% gel, FIG. 4", "result": "~3", "unit": "h"},
      {"measurement": "Duration (min) of cooling", "setting": "philtrum skin", "result": "180+ min"},
      {"measurement": "irritation of the skin", "setting": "philtrum skin; concentrations of up to 12% weight/volume on philtrum skin", "result": "no irritation of the skin was observed with FEMA"},
      {"measurement": "tissue irritation or inflammation on skin", "setting": "skin; human, in vivo", "result": "no tissue irritation or inflammation appeared on the skin"},
      {"measurement": "duration of stopping irritation of an insect sting", "setting": "skin; topical gel 8 to 16% wt/vol", "result": "≥ 3", "unit": "h"},
      {"measurement": "onset of stopping irritation of an insect sting", "setting": "skin; topical gel 8 to 16% wt/vol", "result": "less than 3 minutes"},
      {"measurement": "topical concentration with anti-inflammatory activity on skin", "setting": "skin; total dose of several mg", "result": "≥ 5", "unit": "% wt/vol"},
      {"measurement": "10-hr nasal secretion (avg.±s.e.m)", "setting": "nasal cavity; 15 mg/mL, 5 sec at t=0, 2 and 5 hr, NasoNeb, n=5, vehicle 3.16±0.10 g", "result": "1.86±0.07", "unit": "g"},
      {"measurement": "individual nasal blowouts (average±s.e.m.)", "setting": "nasal cavity; 15 mg/mL, 5 sec at t=0, 2 and 5 hr, NasoNeb, n=56, vehicle 0.38±0.03 g", "result": "0.21 ± 0.03", "unit": "g"},
      {"measurement": "concentration that stops stuffiness of rhinitis and inhibits phlegm secretion", "setting": "nasal cavity; applied to inflamed nasal membranes", "result": "≤ 1.5", "unit": "% wt/vol"},
      {"measurement": "onset of beneficial effects after delivery", "setting": "nasal cavity; topical nasal delivery", "result": "≤ 15", "unit": "min"},
      {"measurement": "activity on TRPA1", "setting": "TRPA1", "result": "not active"},
      {"measurement": "EC50", "setting": "TRPM8 [4]", "result": 1.6, "unit": "µM"},
      {"measurement": "EC50 relative to that of l-menthol", "setting": "TRPM8 [5]", "result": "about 1/30"},
      {"measurement": "Effects of 15 mg on tongue (duration)", "setting": "tongue", "result": "> 35", "unit": "min"}
    ]},
    {"compound": "CCNC(=O)[C@@H]1C[C@H](C)CC[C@H]1C(C)C", "note": "[WS-3]", "values": [
      {"measurement": "EC50", "setting": "TRPM8 [2]", "result": 210, "unit": "µM"},
      {"measurement": "EC50", "setting": "TRPM8 [4]", "result": 5.9, "unit": "µM"},
      {"measurement": "Effects of 15 mg on tongue (duration)", "setting": "tongue", "result": "~8", "unit": "min"},
      {"measurement": "Effects of 15 mg on tongue (sensation)", "setting": "tongue", "result": "pleasant cooling in oral cavity"}
    ]},
    {"compound": "CCOC(=O)CNC(=O)[C@@H]1C[C@H](C)CC[C@H]1C(C)C", "note": "[WS-5]", "values": [
      {"measurement": "Comments (sensation)", "setting": "philtrum skin", "result": "pleasant cool sensations of skin"},
      {"measurement": "Duration (min) of cooling", "setting": "philtrum skin", "result": "51 ± 4", "unit": "min"},
      {"measurement": "EC50", "setting": "TRPM8 [2]", "result": 26, "unit": "µM"},
      {"measurement": "treatment of skin dysesthesia (insect bites, skin allergies, thermal injury)", "setting": "skin", "result": "ineffective"},
      {"measurement": "EC50", "setting": "TRPM8 [4]", "result": 0.5, "unit": "µM"},
      {"measurement": "Effects of 15 mg on tongue (duration)", "setting": "tongue", "result": "~12", "unit": "min"},
      {"measurement": "Effects of 15 mg on tongue (sensation)", "setting": "tongue", "result": "pleasant cooling in oral cavity"}
    ]},
    {"compound": "COc1ccc(NC(=O)[C@@H]2C[C@H](C)CC[C@H]2C(C)C)cc1", "note": "[WS-12]", "values": [
      {"measurement": "EC50", "setting": "TRPM8 [1]", "result": 0.2, "unit": "µM"},
      {"measurement": "Comments (sensation)", "setting": "philtrum skin", "result": "pleasant cool sensations on skin"},
      {"measurement": "Duration (min) of cooling", "setting": "philtrum skin", "result": "38 ± 4", "unit": "min"},
      {"measurement": "treatment of skin dysesthesia (insect bites, skin allergies, thermal injury)", "setting": "skin", "result": "ineffective"},
      {"measurement": "EC50", "setting": "TRPM8 [4]", "result": 22.1, "unit": "µM"},
      {"measurement": "Effects of 15 mg on tongue (duration)", "setting": "tongue", "result": "~20", "unit": "min"},
      {"measurement": "Effects of 15 mg on tongue (sensation)", "setting": "tongue", "result": "pleasant cooling in oral cavity"}
    ]},
    {"compound": "CNC(=O)C(C)(C(C)C)C(C)C", "note": "[WS-23]", "values": [
      {"measurement": "Comments (sensation)", "setting": "philtrum skin", "result": "short duration of action, no overt cold, but more"},
      {"measurement": "Duration (min) of cooling", "setting": "philtrum skin", "result": "25 ± 3", "unit": "min"},
      {"measurement": "EC50", "setting": "TRPM8 [2]", "result": 1500, "unit": "µM"},
      {"measurement": "treatment of skin dysesthesia (insect bites, skin allergies, thermal injury)", "setting": "skin", "result": "ineffective"},
      {"measurement": "EC50", "setting": "TRPM8 [4]", "result": 2.2, "unit": "µM"},
      {"measurement": "Effects of 15 mg on tongue (duration)", "setting": "tongue", "result": "too short-lived"},
      {"measurement": "Effects of 15 mg on tongue (sensation)", "setting": "tongue", "result": "painful cold in throat"},
      {"measurement": "Effects of 15 mg on tongue (duration)", "setting": "tongue; listed as 3804", "result": "~18", "unit": "min"}
    ]},
    {"compound": "CC1CCC(C(C)C)C(C(=O)OCC(O)CO)C1", "note": "(centres unmarked) [WS-30]", "values": [
      {"measurement": "EC50", "setting": "TRPM8 [1]", "result": 5.6, "unit": "µM"}
    ]},
    {"compound": "O=C1NC(c2cccc([N+](=O)[O-])c2)=CCN1c1ccccc1O", "note": "[icilin]", "values": [
      {"measurement": "EC50", "setting": "TRPM8 [2]", "result": 7, "unit": "µM"}
    ]}
  ]
}
